Experimental data reported in paper PMC7287880, “Structural Basis for Broad Substrate Selectivity of Alcohol Dehydrogenase YjgB from Escherichia coli” (Molecules, 2020).

Target: T1, EcYjgB (YjgB) (Escherichia coli, UniProt P27250)
T1 construct: gene ahr; full-length, C-terminal 6xHis tag (pET30a), recombinant in E. coli BL21(DE3), purified by Ni-NTA and size exclusion; Zn-containing dimer
T1 sequence (P27250 1-339): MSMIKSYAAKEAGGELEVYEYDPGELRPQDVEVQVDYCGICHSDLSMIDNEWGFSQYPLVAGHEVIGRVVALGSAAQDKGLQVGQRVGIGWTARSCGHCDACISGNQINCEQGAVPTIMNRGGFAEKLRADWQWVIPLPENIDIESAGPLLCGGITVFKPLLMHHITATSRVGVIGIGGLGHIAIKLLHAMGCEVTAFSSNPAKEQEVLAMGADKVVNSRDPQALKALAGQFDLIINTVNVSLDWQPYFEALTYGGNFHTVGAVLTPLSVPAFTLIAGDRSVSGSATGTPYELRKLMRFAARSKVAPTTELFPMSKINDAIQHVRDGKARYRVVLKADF
Assay: X-ray crystal structure of soaked crystal, […] A
Type: binding
Conditions: apo crystals soaked with 5 mM NADP for 30 min at 7 C; Zn-bound; PEG fragment in substrate pocket; Rossmann-fold cofactor site

## NC(=O)c1ccc[n+]([C@@H]2O[C@H](COP(=O)(O)OP(=O)(O)OC[C@H]3O[C@@H](n4cnc5c(N)ncnc54)[C@H](OP(=O)(O)O)[C@@H]3O)[C@@H](O)[C@H]2O)c1 [NADP]
  X-ray crystal structure of soaked crystal, 2.00 A: The electron density of NADP is clearly shown in the NADP(H) binding site
